Three molecules from PMC6857474, “Differential Effects of the Mitochondria-Active Tetrapeptide SS-31 (D-Arg-dimethylTyr-Lys-Phe-NH2) and Its Peptidase-Targeted Prodrugs in Experimental Acute Kidney Injury” (Frontiers in Pharmacology, 2019) can be followed below.

Like-named read-outs stand apart in the source and are kept apart here. Non-standard residues stand in square brackets, D forms with d. Residues, ends and D or L forms follow the SMILES beside them. Dmt = Cc1cc(O)cc(C)c1C[C@H](N)C(=O)O Some results are limits rather than exact numbers.

Series [1] has as its target T1, aminopeptidase A (APA) (Rattus norvegicus, UniProt P50123).
T1 construct: These cells express high levels of APA and γ-GT activities and can be used to measure kinetics in living cells; endogenous in cells; host or cells: EC219 rat brain-derived endothelial cells
Put plainly: APA enzymatic activity in intact living EC219 cells (α-Glu-AMC substrate). The format is cell-based. The method, then: The preparation and characterization of rat brain-derived EC219 endothelial cells were previously described ([Juillerat-Jeanneret et al., 1992]). These cells express high levels of APA and γ-GT activities and can be used to measure kinetics in living cells as APA and γ-GT-positive representative cell models. The cells were grown in Dulbecco’s modified Eagle medium (DMEM) containing 1 g/L glucose, 10% heat-inactivated fetal calf serum (FCS), and antibiotics on uncoated cell culture plastic plates and flasks. MDCK and LLCPK cells were obtained from the American Tissue Culture Collection (ATCC, Manassas, VA, USA) and were grown in DMEM containing 4.5 g/L glucose, 10% FCS, and antibiotics. mCCD, and mDCT cells were a kind gift from O. Bonny (UNIL, Lausanne, Switzerland) and were cultured in DMEM (Ham’s F12 1:1 vol/vol, 60 nM sodium selenate, 5 μg/ml transferrin, 50 nM dexamethasone, 1 nM triiodothyronine, 10 ng/ml epidermal growth factor, 5 μg/ml insulin) and 2% FCS. The characteristics of the used cell lines are shown in Supplementary Table S2 .
Stock solutions of α-Glu-AMC (APA) and γ-Glu-AMC and Gly-Gly (γ-GT) substrates, all from Bachem, were prepared at 10 mM in DMSO. EC219 cells were grown to confluence in 96-well plates (Corning, NY, USA), then the culture medium was removed, and the cell layers washed once with 100 µl PBS and 100 µl of substrates at decreasing concentrations (320–10 µM) of α-Glu-AMC or γ-Glu-AMC and 20 mM Gly-Gly substrates diluted in PBS and increasing concentrations (0–20 µM) of SS-31 analogs were added. The increase in […] was measured at 37°C in a thermostated fluorescence multiwell-plate reader (CytoFluor Series 4000; PerSeptive Biosystems, MA, USA) at λex = 360 nm/λem = 460 nm using the linear portion of the curves. The kinetics values were then graphically determined or according to Wu and colleagues ([Wu et al., 2011]).
(A) Intact living EC219 cells were exposed to increasing concentrations of either amastatin (left panel) or acivicin (right panel), two well-characterized enzymatic activity inhibitors of APA or γ-GT, respectively. The activities of the enzymes aminopeptidase A (APA) or γ-glutamyltranspeptidase (γ-GT) were determined using 40 µM of the substrates (S), α-Glu-AMC or γ-Glu-AMC, respectively. (B) Intact living EC219 cells were exposed to increasing concentrations [10-320 µM] of the APA α-Glu-AMC substrate, in the presence of increasing concentrations of SS-31 or α-Glu-SS-31, and the increase of free AMC fluorescence was recorded. Data were analyzed graphically. (DMSO 0.2% was present in all samples).

The nature of series [2]: Stability in mouse plasma at 37°C. It is filed as in vitro ADME. The following applies: for Release of SS-31 from α-Glu-SS-31 / Stability [% of T0]: 1 μM; for remaining at 0.5 h, 1 µM / remaining at 1 h, 1 µM / remaining at 3 h, 1 µM / remaining at 5 h, 1 µM: heparinized mouse plasma, read-out: Stability [% of T0]. As to the method:
Finally, we determined if α-Glu functionalization of SS-31 would improve the plasma stability of the compound. SS-31 or α-Glu-SS-31 (at 1 µM concentration) was added to heparinized mouse plasma, and the aliquots were incubated at 37°C for various time points before analysis ( Table 2 ). After a rapid decrease of α-Glu-SS-31 concentration, associated with the appearance of free SS-31, in mouse plasma, the concentration of both compounds remained stable for up to 5 h, whereas SS-31 concentration decreased regularly during the same period of time.

Series [3] has as its target T2, aminopeptidase A (APA) (Mus musculus, UniProt P16406).
T2 construct: from tissue; host or cells: frozen kidney sections of ADR-treated BALB/c male mice
T2 sequence (P16406 1-945): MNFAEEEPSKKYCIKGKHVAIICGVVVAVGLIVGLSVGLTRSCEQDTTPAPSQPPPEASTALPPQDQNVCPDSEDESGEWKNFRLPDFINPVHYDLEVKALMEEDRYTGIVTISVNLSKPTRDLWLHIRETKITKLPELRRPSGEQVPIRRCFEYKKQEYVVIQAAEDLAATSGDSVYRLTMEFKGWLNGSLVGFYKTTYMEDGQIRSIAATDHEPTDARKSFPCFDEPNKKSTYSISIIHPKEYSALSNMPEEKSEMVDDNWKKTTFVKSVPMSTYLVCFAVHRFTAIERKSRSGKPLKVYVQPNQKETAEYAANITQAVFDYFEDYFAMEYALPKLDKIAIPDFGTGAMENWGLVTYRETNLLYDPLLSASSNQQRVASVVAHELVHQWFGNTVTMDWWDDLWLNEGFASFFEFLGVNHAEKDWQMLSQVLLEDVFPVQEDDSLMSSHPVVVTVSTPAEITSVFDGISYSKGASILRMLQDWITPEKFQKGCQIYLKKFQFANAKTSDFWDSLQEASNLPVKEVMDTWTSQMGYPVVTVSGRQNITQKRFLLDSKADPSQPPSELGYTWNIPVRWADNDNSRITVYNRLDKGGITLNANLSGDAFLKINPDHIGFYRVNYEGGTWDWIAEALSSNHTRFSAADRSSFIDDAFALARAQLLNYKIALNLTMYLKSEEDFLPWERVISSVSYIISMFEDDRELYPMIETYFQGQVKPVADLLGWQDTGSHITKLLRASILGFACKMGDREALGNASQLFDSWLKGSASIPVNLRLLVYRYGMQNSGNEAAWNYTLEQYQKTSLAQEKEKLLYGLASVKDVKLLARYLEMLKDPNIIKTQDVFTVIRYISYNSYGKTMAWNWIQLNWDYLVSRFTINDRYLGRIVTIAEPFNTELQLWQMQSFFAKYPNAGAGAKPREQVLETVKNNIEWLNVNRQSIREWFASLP
Put plainly: Histoenzymography of APA activity on frozen kidney sections of ADR-treated mice. It is filed as biochemical. The following applies: kidney sections of ADR-exposed mice, α-Glu-βNA substrate, 37°C. The method, then:
Enzymatic activities were evaluated by histoenzymography on OCT-embedded frozen kidneys sections (7 µm), as previously described ([Juillerat-Jeanneret et al., 1992]; [Juillerat-Jeanneret et al., 2000]; [Juillerat-Jeanneret et al., 2003]). Briefly, slides were fixed for 5 min in cold (−20°C) acetone, air dried at room temperature, rehydrated for 5 min in 0.9% NaCl, and exposed to the α-Glu-4-methoxy-β-naphtylamide (APA; Bachem) or γ-Glu-4-methoxy-β-naphtylamide (γ-GT; Serva) substrates and Fast Blue B (Sigma-Aldrich) at 37°C for 15 to 60 min until a red coloration was visible. The slides were washed in distilled water, counterstained with hematoxylin (Mayer) for 1 min, rinsed under tap water and then with Scott solution for 1 min, and mounted in Aquamount (Immu-mount; Thermo Shandon, Pittsburgh, PA, USA) and analyzed with a Nikon Eclipse E800 microscope and digital DXM1200 camera using ACT-1 software.
Sequential sections (7 µm) of frozen OCT-embedded kidneys of adriamycin (ADR)-treated mice were exposed at 37°C to β-methoxynaphthylamide (β-NA) specific substrates of aminopeptidase A (α-Glu-βNA, upper panels) or γ-glutamyltranspeptidase (γ-Glu-βNA, lower panels) and Fast Blue B, in the absence (none) or the presence of SS-31, α-Glu-SS-31 or γ-Glu-SS-31. The sections were then counterstained with light hematoxylin reagent. The enzymatic activity is visualized as a red precipitate. […]

A further series in a line: in vivo. The following applies: male, mouse, ip, 30 mg/kg. The method, then: For PK evaluation, SS-31 was administered i.p. to male mice in suspension (gelatine/saline 7.5%/0.62% in water) using an administration volume of 4 ml/kg. Blood samples were collected in tubes containing EDTA as an anticoagulant, and plasma was separated by centrifugation and stored at −80°C. Liver and kidney samples (∼100 mg aliquots) were homogenized in three volumes of water using Precellys tissue homogenization tubes (precellys.com). Twenty-five microliters of each tissue homogenate was further diluted with 25 µl blank plasma to produce the final tissue homogenate for extraction. Prepared samples were stored at −20°C before analysis.
All samples were analyzed using protein precipitation followed by LC-MS/MS analysis. Briefly, 50 µl plasma or final tissue homogenate was mixed with 50 µl 0.5 M HClO4/acetonitrile 9/1 (containing 200 ng/ml bosentan as an internal standard). Samples were stirred and 300 µl water was added, followed by centrifugation at 5600 rpm (4°C, 10 min). Ten microliters of supernatant was analyzed by LC/MS. Calibration standards in plasma were prepared the same way. The LC columns and conditions used were as follows: Phenomenex, Polar RP, 4 µm, and 50 × 2.1 mm at 0.4-ml/min flow rate with a 3-min gradient from 95% solvent A to 95% solvent B (solvent A: water/acetonitrile/HCOOH, 90:10:0.1 with 10 mM NH4 formate; solvent B: water/ACN/HCOOH, 10:90:0.1 with 10 mM NH4 formate). Mass spectrometric conditions were as follows: Thermo TSQ Vantage with positive heated electrospray ionization in MS/MS mode. Mass transitions of the compounds were m/z 320.7 to 119.9. Relative concentrations of the drug and metabolites were established by the percentage of peak area ratio compared to time zero spiked compounds. PK parameters for all studies were calculated using Phoenix WinNonlin Software.

T1 sequence (P50123 whole entry): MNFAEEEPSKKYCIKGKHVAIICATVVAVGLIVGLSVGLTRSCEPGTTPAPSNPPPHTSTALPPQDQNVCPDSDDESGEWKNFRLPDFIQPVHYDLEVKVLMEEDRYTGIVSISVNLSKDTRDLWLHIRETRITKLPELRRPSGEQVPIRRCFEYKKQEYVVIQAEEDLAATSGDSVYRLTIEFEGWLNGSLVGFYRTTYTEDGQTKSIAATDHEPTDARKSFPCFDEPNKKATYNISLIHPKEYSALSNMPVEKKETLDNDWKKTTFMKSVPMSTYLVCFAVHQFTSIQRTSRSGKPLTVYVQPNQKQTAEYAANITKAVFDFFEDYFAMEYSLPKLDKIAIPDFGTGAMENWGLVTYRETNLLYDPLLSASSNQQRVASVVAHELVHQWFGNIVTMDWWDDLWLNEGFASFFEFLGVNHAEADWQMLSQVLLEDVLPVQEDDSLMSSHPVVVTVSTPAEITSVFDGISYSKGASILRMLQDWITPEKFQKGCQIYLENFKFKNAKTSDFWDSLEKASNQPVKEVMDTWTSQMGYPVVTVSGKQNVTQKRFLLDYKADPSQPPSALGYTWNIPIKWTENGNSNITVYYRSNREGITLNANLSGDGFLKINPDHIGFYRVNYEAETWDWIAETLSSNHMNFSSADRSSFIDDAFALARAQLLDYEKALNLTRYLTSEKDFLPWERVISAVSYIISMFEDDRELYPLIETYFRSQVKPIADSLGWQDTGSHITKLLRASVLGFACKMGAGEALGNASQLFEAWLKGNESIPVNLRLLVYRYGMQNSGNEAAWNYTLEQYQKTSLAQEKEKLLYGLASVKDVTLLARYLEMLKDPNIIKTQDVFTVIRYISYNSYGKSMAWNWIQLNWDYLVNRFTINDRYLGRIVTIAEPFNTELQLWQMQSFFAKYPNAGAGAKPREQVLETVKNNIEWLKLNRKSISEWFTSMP

As for `Cc1cc(O)cc(C)c1C[C@H](NC(=O)[C@@H](CCCNC(=N)N)NC(=O)[C@@H](N)CCC(=O)O)C(=O)N[C@@H](CCCCN)C(=O)N[C@@H](Cc1ccccc1)C(N)=O` [α-Glu-SS-31, H-Glu-D-Arg-DMT-Lys-Phe-NH 2 .2TFA] (H-E[dR][Dmt]KF-NH2), the half-maximal inhibitory concentration (IC50) (usually the midpoint of a concentration-inhibition curve) against aminopeptidase A (APA) [1] turned out to be 13.7 ± 6.7 µM. Besides, the “inhibition of APA activity” value on aminopeptidase A (APA) [1] (intact living EC219 cells) is listed as “selective inhibition”. In addition, in series [2] (time 0 h), the “Release of SS-31 from α-Glu-SS-31” value was 7.5% and the “Stability [% of T0]” value was determined as 100%. Besides, in series [2] (time 0.5 h), the “Release of SS-31 from α-Glu-SS-31” value is recorded as 9% and the remaining at 0.5 h, 1 µM was 68.5%. In series [2] (time 1 h), the “Release of SS-31 from α-Glu-SS-31” value is 9% and the remaining at 1 h, 1 µM turned out to be 68.3%. Further, in series [2] (time 3 h), the “Release of SS-31 from α-Glu-SS-31” value is on record as 10% and the remaining at 3 h, 1 µM stood at 66.9%. For the same molecule, in series [2] (time 5 h), the “Release of SS-31 from α-Glu-SS-31” value turned out to be 9% and the remaining at 5 h, 1 µM came to 65.8%. Also, the “enzymatic activity of APA (histoenzymography)” value on aminopeptidase A (APA) [3] is recorded as “selectively inhibited”.

On to `CC(C)C[C@@H](N)[C@H](O)C(=O)N[C@H](C(=O)N[C@H](C(=O)N[C@@H](CC(=O)O)C(=O)O)C(C)C)C(C)C` [amastatin], for which, on aminopeptidase A (APA) [1] (intact living EC219 cells, 40 µM α-Glu-AMC, read-out: IC50 APA), the concentration for half-maximal inhibition (IC50) was below 1 µM.

The molecule `Cc1cc(O)cc(C)c1C[C@H](NC(=O)[C@H](N)CCCNC(=N)N)C(=O)N[C@@H](CCCCN)C(=O)N[C@@H](Cc1ccccc1)C(N)=O` [SS-31, D-Arg-dimethylTyr-Lys-Phe-NH2] (H-[dR][Dmt]KF-NH2) registered a 50% inhibitory concentration (IC50) against aminopeptidase A (APA) [1] of 8.5 ± 3.8 µM. The “Stability [% of T0]” value in series [2] (time 0 h) was determined as 100%. Further, in series [2] (time 0.5 h), the remaining at 0.5 h, 1 µM worked out at 89.3%. For the same molecule, the remaining at 1 h, 1 µM in series [2] (time 1 h) was 85.3%. In addition, the remaining at 3 h, 1 µM in series [2] (time 3 h) turned out to be 50.1%. For the same molecule, the remaining at 5 h, 1 µM in series [2] (time 5 h) worked out at 43%. In the series “in vivo” (kidney), the AUC(0-inf) (as a rule, total exposure, with the tail of the curve extrapolated) worked out at 31300 ng·h/mL; the AUC(0-t) (in general, exposure summed from dosing to a finite time, without extrapolation to infinity) is 27800 ng·h/mL; the peak level (Cmax) was 17200 ng/mL; the Tmax – broadly, the time at which the peak concentration occurs – worked out at 1 h. Further, in the series “in vivo” (kidney), the half-life (in general, how long it takes for the measured level to halve) is 1.1 h and the level at time molar was around 140 nM. In “in vivo” (liver), the AUC(0-inf) came out at 22100 ng·h/mL; the AUC(0-t) came out at 20700 ng·h/mL; the Cmax (in general, the highest concentration seen after dosing) amounted to 12700 ng/mL; the Tmax came out at 1 h. Moreover, in “in vivo” (liver), the half-life was 0.9 h. Also, in the series “in vivo” (plasma), the AUC(0-inf) is 21100 ng·h/mL, the area under the curve AUC(0-t) came to 21100 ng·h/mL, the Cmax is 20000 ng/mL and the time of peak concentration (Tmax) was determined as 1 h. Besides, the half-life in “in vivo” (plasma) is 0.3 h.
